The text below walks through data of PubChem BioAssay (NCI).

Each structure is given as a SMILES string. “And” between values parts separate entries of the source, which are not always exact repeats. Equal values may be shown once.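 Cultured in 96-well plates, cells were exposed to test compound for 48 hours across five concentrations. GI50 marks 50% less growth. Definition used: TGI = concentration required for complete inhibition of growth.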

The test system of one assay is NCI-H226 lung. The assay can be described thus: growth of human tumour cells (NCI), 48 h.
Regarding `CCN(CC)CCNC(=O)c1c(C)[nH]c(/C=C2\C(=O)Nc3ccc(F)cc32)c1C`, the GI50 is 5.22 µM and 5.72 µM and 8.46 µM; the TGI is > 10 µM and 20 µM and 23.4 µM.

With `CCOC1Oc2ccccc2-c2oc(=O)c(Sc3ccc(C)cc3)cc21` (stereo not given), the GI50 is 36.8 µM and the TGI was > 100 µM.

For the molecule `C[C@H](Cn1ncnn1)Nc1ncc2cc(Oc3ccc(F)cc3F)c(=O)n(C)c2n1`, the GI50 was > 25 µM and the TGI was > 25 µM.

Turning to `CC1CCCc2c1nn(C(=O)/C=C(\N)c1ccccc1)c2N` (stereo not given), the GI50 was 16.5 µM and the TGI was > 100 µM.

As for `CCSc1nc(N)c2cn[nH]c2n1`, the GI50 was 16.9 µM and the TGI came out at 57.1 µM.

In the case of `COc1ccc(CC(C)C(C)Cc2ccc(OC)c(OC)c2)cc1OC` (stereo not given), the GI50 was 908 µM and the TGI was > 1400 µM.

`Cc1ccc2c(c1)Sc1ccc(N=NN(C)C)cc1N2C`: the TGI is > 100 µM.

As to `Cc1ncc(C(=O)Nc2ccc(CN3CCN(C)CC3)c(C(F)(F)F)c2)cc1C#Cc1cnc(NC2CC2)c2ncccc12`, the GI50 was 2.1 µM and the TGI is 6.46 µM.

`C=CCO/N=C/c1cc(NC(=S)c2ccoc2C)ccc1Cl`: the TGI is 41.3 µM.

For the molecule `CCCCCCCCCCN=C(c1ccc(N(C)C)cc1)c1ccc(N(C)C)cc1`, the GI50 was 10.8 µM and the TGI is > 81.3 µM.

On to `CCCCCCCCCCCCCCCCCCNC(=O)[C@H]1CSC(c2cccs2)N1` (stereo not given in full), for which the GI50 is 1.05 µM and the TGI worked out at 2.01 µM.

Take `Cn1c2ccccc2c2c(=O)c3ccccc3[nH]c21`: the GI50 was 38.8 µM and the TGI was > 100 µM.

Another assay has as its system TK-10 renal. The assay can be described thus: growth of human tumour cells (NCI), 48 h.
As for `CCN(CC)CCNC(=O)c1c(C)[nH]c(/C=C2\C(=O)Nc3ccc(F)cc32)c1C`, the GI50 was 2.78 µM and 2.01 µM and 5.52 µM; the TGI is > 10 µM and 5.81 µM and 20.9 µM.

With `CCOC1Oc2ccccc2-c2oc(=O)c(Sc3ccc(C)cc3)cc21` (stereo not given), the GI50 is 30.8 µM and the TGI was > 100 µM.

Consider `C[C@H](Cn1ncnn1)Nc1ncc2cc(Oc3ccc(F)cc3F)c(=O)n(C)c2n1`, for which the GI50 is > 25 µM and the TGI is > 25 µM.

For the molecule `CC1CCCc2c1nn(C(=O)/C=C(\N)c1ccccc1)c2N` (stereo not given), the GI50 is 28.9 µM and the TGI was > 100 µM.

As for `CCSc1nc(N)c2cn[nH]c2n1`, the GI50 was 7.54 µM and the TGI was determined as 34.3 µM.

In the case of `COc1ccc(CC(C)C(C)Cc2ccc(OC)c(OC)c2)cc1OC` (stereo not given), the GI50 was > 1400 µM and the TGI is > 1400 µM.

For `Cc1ccc2c(c1)Sc1ccc(N=NN(C)C)cc1N2C`, the TGI was > 100 µM.

Take `Cc1ncc(C(=O)Nc2ccc(CN3CCN(C)CC3)c(C(F)(F)F)c2)cc1C#Cc1cnc(NC2CC2)c2ncccc12`: the GI50 is 0.78 µM and the TGI amounted to 1.31 µM.

`C=CCO/N=C/c1cc(NC(=S)c2ccoc2C)ccc1Cl` registered a TGI of 42.2 µM.

With `CCCCCCCCCCN=C(c1ccc(N(C)C)cc1)c1ccc(N(C)C)cc1`, the GI50 was 3.81 µM and the TGI came out at 49.7 µM.

For `CCCCCCCCCCCCCCCCCCNC(=O)[C@H]1CSC(c2cccs2)N1` (stereo not given in full), the GI50 was 1.79 µM and the TGI was > 50 µM.

As for `Cn1c2ccccc2c2c(=O)c3ccccc3[nH]c21`, the GI50 was 42.4 µM and the TGI is > 100 µM.

The next assay relates to MOLT-4 leukemia. Nature of the assay: growth of human tumour cells (NCI), 48 h.
Take `CCN(CC)CCNC(=O)c1c(C)[nH]c(/C=C2\C(=O)Nc3ccc(F)cc32)c1C`: the GI50 is 1.1 µM and 2.73 µM and 1.7 µM; the TGI is > 10 µM and 20 µM and 9.05 µM.

Consider `CCOC1Oc2ccccc2-c2oc(=O)c(Sc3ccc(C)cc3)cc21` (stereo not given), for which the GI50 is 6.73 µM and the TGI was 28.3 µM.

For the molecule `C[C@H](Cn1ncnn1)Nc1ncc2cc(Oc3ccc(F)cc3F)c(=O)n(C)c2n1`, the GI50 was > 25 µM and the TGI is > 25 µM.

As to `CC1CCCc2c1nn(C(=O)/C=C(\N)c1ccccc1)c2N` (stereo not given), the GI50 was 5.16 µM and the TGI was determined as 84.9 µM.

With `CCSc1nc(N)c2cn[nH]c2n1`, the GI50 was 39.4 µM and the TGI is > 100 µM.

`COc1ccc(CC(C)C(C)Cc2ccc(OC)c(OC)c2)cc1OC` (stereo not given): the GI50 is > 1400 µM and the TGI was > 1400 µM.

`Cc1ccc2c(c1)Sc1ccc(N=NN(C)C)cc1N2C`: the TGI was > 100 µM.

Turning to `Cc1ncc(C(=O)Nc2ccc(CN3CCN(C)CC3)c(C(F)(F)F)c2)cc1C#Cc1cnc(NC2CC2)c2ncccc12`, the GI50 was 0.519 µM and the TGI is 1.17 µM.

Regarding `C=CCO/N=C/c1cc(NC(=S)c2ccoc2C)ccc1Cl`, the TGI was 29.4 µM.

With `CCCCCCCCCCN=C(c1ccc(N(C)C)cc1)c1ccc(N(C)C)cc1`, the GI50 was 0.416 µM and the TGI worked out at 30.8 µM.

With `CCCCCCCCCCCCCCCCCCNC(=O)[C@H]1CSC(c2cccs2)N1` (stereo not given in full), the GI50 is 0.974 µM and the TGI came out at 15.7 µM.

Take `Cn1c2ccccc2c2c(=O)c3ccccc3[nH]c21`: the GI50 is > 100 µM and the TGI is > 100 µM.

For the next assay, the system named is LOX IMVI melanoma. The assay can be described thus: growth of human tumour cells (NCI), 48 h.
As for `CCN(CC)CCNC(=O)c1c(C)[nH]c(/C=C2\C(=O)Nc3ccc(F)cc32)c1C`, the GI50 is 1.29 µM and 2.29 µM and 1.32 µM; the TGI is 2.92 µM and 5.01 µM and 3 µM.

Turning to `CCOC1Oc2ccccc2-c2oc(=O)c(Sc3ccc(C)cc3)cc21` (stereo not given), the GI50 is 24 µM and the TGI was > 100 µM.

On to `C[C@H](Cn1ncnn1)Nc1ncc2cc(Oc3ccc(F)cc3F)c(=O)n(C)c2n1`, for which the GI50 is > 25 µM and the TGI was > 25 µM.

Regarding `CC1CCCc2c1nn(C(=O)/C=C(\N)c1ccccc1)c2N` (stereo not given), the GI50 was 6.29 µM and the TGI is > 100 µM.

Regarding `CCSc1nc(N)c2cn[nH]c2n1`, the GI50 was 30.9 µM and the TGI is > 100 µM.

For `COc1ccc(CC(C)C(C)Cc2ccc(OC)c(OC)c2)cc1OC` (stereo not given), the GI50 was > 1400 µM and the TGI was > 1400 µM.

Consider `Cc1ccc2c(c1)Sc1ccc(N=NN(C)C)cc1N2C`, for which the TGI was > 100 µM.

As to `Cc1ncc(C(=O)Nc2ccc(CN3CCN(C)CC3)c(C(F)(F)F)c2)cc1C#Cc1cnc(NC2CC2)c2ncccc12`, the GI50 is 0.59 µM and the TGI came out at 1.11 µM.

With `C=CCO/N=C/c1cc(NC(=S)c2ccoc2C)ccc1Cl`, the TGI worked out at 44.5 µM.

`CCCCCCCCCCN=C(c1ccc(N(C)C)cc1)c1ccc(N(C)C)cc1`: the GI50 is 0.601 µM and the TGI was > 96.1 µM.

As for `CCCCCCCCCCCCCCCCCCNC(=O)[C@H]1CSC(c2cccs2)N1` (stereo not given in full), the GI50 is 0.834 µM and the TGI stood at 2.02 µM.

With `Cn1c2ccccc2c2c(=O)c3ccccc3[nH]c21`, the GI50 is 44.2 µM and the TGI is > 100 µM.

The next assay deals with OVCAR-5 ovarian. The assay can be described thus: growth of human tumour cells (NCI), 48 h.
For the molecule `CCN(CC)CCNC(=O)c1c(C)[nH]c(/C=C2\C(=O)Nc3ccc(F)cc32)c1C`, the GI50 is 4.1 µM and 2.35 µM and 3.57 µM; the TGI was > 10 µM and 8.72 µM and 18.1 µM.

As to `CCOC1Oc2ccccc2-c2oc(=O)c(Sc3ccc(C)cc3)cc21` (stereo not given), the GI50 is > 100 µM and the TGI was > 100 µM.

`C[C@H](Cn1ncnn1)Nc1ncc2cc(Oc3ccc(F)cc3F)c(=O)n(C)c2n1`: the GI50 is > 25 µM and the TGI is > 25 µM.

`CC1CCCc2c1nn(C(=O)/C=C(\N)c1ccccc1)c2N` (stereo not given): the GI50 is 31 µM and the TGI was > 100 µM.

With `CCSc1nc(N)c2cn[nH]c2n1`, the GI50 is 21.8 µM and the TGI is 63.1 µM.

For the molecule `COc1ccc(CC(C)C(C)Cc2ccc(OC)c(OC)c2)cc1OC` (stereo not given), the GI50 is > 1400 µM and the TGI is > 1400 µM.

Consider `Cc1ccc2c(c1)Sc1ccc(N=NN(C)C)cc1N2C`, for which the TGI was > 100 µM.

For the molecule `Cc1ncc(C(=O)Nc2ccc(CN3CCN(C)CC3)c(C(F)(F)F)c2)cc1C#Cc1cnc(NC2CC2)c2ncccc12`, the GI50 is 0.668 µM and the TGI is 1.32 µM.

As for `C=CCO/N=C/c1cc(NC(=S)c2ccoc2C)ccc1Cl`, the TGI worked out at 33.8 µM.

Consider `CCCCCCCCCCN=C(c1ccc(N(C)C)cc1)c1ccc(N(C)C)cc1`, for which the GI50 was 7.65 µM and the TGI was > 100 µM.

As for `CCCCCCCCCCCCCCCCCCNC(=O)[C@H]1CSC(c2cccs2)N1` (stereo not given in full), the GI50 is 1.17 µM and the TGI came to 2.57 µM.

Take `Cn1c2ccccc2c2c(=O)c3ccccc3[nH]c21`: the GI50 was 30.8 µM and the TGI was > 100 µM.
